Test results: ChEMBL document CHEMBL1201862, “PubChem BioAssay data set” (2004)
“And” between values parts separate entries of the source, which are not always exact repeats. Equal entries are not always repeated. The source made the active and inactive calls.

Legend:
[1] = inhibitors of HIV Env-driven cell fusion, dose response, cherry-pick (AID 652057); assay type: functional, cell-based
[2] = CEM21 lymphoblast cell cytotoxicity, dose response, cytotoxicity control for viral fusion inhibitor project, CellTiter-Glo luminescence, cherry-picked (AID 652042); assay type: functional, cell-based;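 also: potency for signal decrease meaning cytotoxicity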
[3] = off-target signal loss in HeLa-CEM21 co-culture – HeLa F-luc CTL cells, cherry-picked, counter-screen for HIV-1 Env fusion inhibitor project, dose response (AID 652040); assay type: functional, cell-based;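 also: potency for signal decrease marking cytotoxic or nonspecific inhibition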
[4] = inhibitors of clade B AD8 Env fusion, dose response, cell-based, cherry-pick (AID 652062); assay type: functional;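 also: luciferase signal from cell-cell fusion driven by HIV-1 clade B AD8 Env; potency is for inhibitors of fusion seen as a drop in luminescence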
[5] = HIV Env cell-cell fusion inhibitors, dose response, HIV entry, plate reader, dry powder (AID 687023); assay type: functional, cell-based
[6] = CEM21 cell cytotoxicity, dose response, cytotoxicity control, plate reader, dry powder (AID 687026); assay type: functional, cell-based
[7] = Shn3 3'UTR reporter inhibitors, dose response, cell-based, Clone20 osteoblasts, firefly luciferase, cherry-picked (AID 624132); assay type: functional;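 also: firefly luciferase luminescence from reporter carrying the Shn3 3'UTR in osteoblasts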
[8] = HepG2 cell cytotoxicity, dose response, cytotoxicity control for Shn3 inhibitor project, CellTiter-Glo, cherry-picked (AID 624134); assay type: functional, cell-based
[9] = control 3'UTR Renilla luciferase suppression, dose response, counter-screen for Shn3 inhibitor project, cell-based, Clone20-Shn3RL, cherry-picked (AID 624133); assay type: functional
[10] = molecular target: Matrix metalloproteinase-14 (Homo sapiens, UniProt P50281); assay: Dose Response confirmation of uHTS hits for a small molecule inhibitors of MT1-MMP activation in a fluorescence assay set 1.; assay type: functional
[11] = reduction of Shn3 3'UTR firefly luciferase signal, dose response, Schnurri-3 inhibitor project, cell-based, Clone20 osteoblasts, cherry-pick, set 2 (AID 720490); assay type: functional;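 also: actives lower the luminescence signal as inhibitors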
[12] = molecular target: Protein Tat (Human immunodeficiency virus type 1 group M subtype B (isolate HXB2)(HIV-1), UniProt P04608); assay type: functional;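 also: tat binding to TAR RNA read out by fluorescence polarization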
[13] = inhibitors of Vif binding to APOBEC3G peptide, primary screen, biochemical, TR-FRET, GST-Vif 1-94, biotin-A3G peptide, dose response retest (AID 1117319); assay type: functional;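 also: TR-FRET signal of purified GST-Vif binding a biotinylated A3G peptide; inhibitors lower the FRET signal by blocking Vif and A3G binding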
[14] = ADAM10 inhibitors, peptide cleavage, dose response, biochemical, QFRET (AID 743254);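 also: ADAM10 enzyme with the DM2 quenched FRET peptide as substrate; EDANS fluorescence gain as the protease cuts the substrate; inhibitor potency against ADAM10 proteolytic activity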
[15] = molecular target: Disintegrin and metalloproteinase domain-containing protein 17 (Homo sapiens, UniProt P78536); assay: ADAM17 protease inhibitors, dose response, counter-screen for ADAM10 exosite inhibitor project, biochemical, quenched FRET substrate (AID 743253)
[16] = A cytotoxicity screen of small molecule inhibitors of the PhoP region in Salmonella typhi identified in the primary screen. [Related pubchem assays: 1850, 1864, 1985 ]; assay type: functional
[17] = molecular target: Acyl-protein thioesterase 1 (Homo sapiens, UniProt O75608); assay: Late stage assay provider results from the probe development effort to identify selective inhibitors of LYPLA1: fluorescence-based biochemical dose-response assay.
[18] = molecular target: Beta-galactosidase (Escherichia coli, UniProt Q8VNN2); assay: Dose response counterscreen for EBI2 assay utilizing the enzyme, b-galactosidase.; assay type: functional
[19] = molecular target: G-protein coupled receptor 183 (Homo sapiens, UniProt P32249); assay: Dose-response confirmation of small molecule antagonists of the EBI2 receptor via a luminescent beta-arrestin assay.; assay type: functional
[20] = system: HEK293; assay: HEK293T cell cytotoxicity, dose response, cytotoxicity control, ATP luminescence, cherry-pick samples (AID 687005); assay type: functional, cell-based; details: Homo sapiens;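 also: cells exposed to compound for 48 hours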
[21] = HEK293 Cytotoxicity Assay Measured in Cell-Based System Using Plate Reader - 7071-01_Inhibitor_Dose_CherryPick_Activity_Set2.; assay type: functional
[22] = CTGF mRNA reduction under YAP1 overexpression, dose response, mechanism study for YAP1 pathway inhibitor project, DLD1 cells, RT-qPCR, cherry-pick (AID 1053127); assay type: functional, cell-based; details: DLD-1

Acyl-protein thioesterase 1, sequence (O75608 whole entry): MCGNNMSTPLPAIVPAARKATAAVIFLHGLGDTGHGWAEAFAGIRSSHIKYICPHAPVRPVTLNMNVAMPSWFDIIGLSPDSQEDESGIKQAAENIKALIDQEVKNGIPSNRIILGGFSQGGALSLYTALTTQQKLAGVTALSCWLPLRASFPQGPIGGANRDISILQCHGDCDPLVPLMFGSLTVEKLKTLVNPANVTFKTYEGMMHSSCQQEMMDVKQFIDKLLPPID
G-protein coupled receptor 183, sequence (P32249 whole entry): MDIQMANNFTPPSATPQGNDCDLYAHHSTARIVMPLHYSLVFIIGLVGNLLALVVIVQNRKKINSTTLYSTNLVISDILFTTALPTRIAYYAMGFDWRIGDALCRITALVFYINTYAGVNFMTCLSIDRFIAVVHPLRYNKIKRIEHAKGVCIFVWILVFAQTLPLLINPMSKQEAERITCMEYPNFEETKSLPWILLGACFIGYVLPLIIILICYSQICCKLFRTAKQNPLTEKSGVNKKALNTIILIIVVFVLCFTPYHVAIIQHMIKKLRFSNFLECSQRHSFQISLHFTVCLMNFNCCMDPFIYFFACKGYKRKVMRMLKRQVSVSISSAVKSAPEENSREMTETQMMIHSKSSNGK
Disintegrin and metalloproteinase domain-containing protein 17, sequence (P78536 whole entry, the tested form may be a part): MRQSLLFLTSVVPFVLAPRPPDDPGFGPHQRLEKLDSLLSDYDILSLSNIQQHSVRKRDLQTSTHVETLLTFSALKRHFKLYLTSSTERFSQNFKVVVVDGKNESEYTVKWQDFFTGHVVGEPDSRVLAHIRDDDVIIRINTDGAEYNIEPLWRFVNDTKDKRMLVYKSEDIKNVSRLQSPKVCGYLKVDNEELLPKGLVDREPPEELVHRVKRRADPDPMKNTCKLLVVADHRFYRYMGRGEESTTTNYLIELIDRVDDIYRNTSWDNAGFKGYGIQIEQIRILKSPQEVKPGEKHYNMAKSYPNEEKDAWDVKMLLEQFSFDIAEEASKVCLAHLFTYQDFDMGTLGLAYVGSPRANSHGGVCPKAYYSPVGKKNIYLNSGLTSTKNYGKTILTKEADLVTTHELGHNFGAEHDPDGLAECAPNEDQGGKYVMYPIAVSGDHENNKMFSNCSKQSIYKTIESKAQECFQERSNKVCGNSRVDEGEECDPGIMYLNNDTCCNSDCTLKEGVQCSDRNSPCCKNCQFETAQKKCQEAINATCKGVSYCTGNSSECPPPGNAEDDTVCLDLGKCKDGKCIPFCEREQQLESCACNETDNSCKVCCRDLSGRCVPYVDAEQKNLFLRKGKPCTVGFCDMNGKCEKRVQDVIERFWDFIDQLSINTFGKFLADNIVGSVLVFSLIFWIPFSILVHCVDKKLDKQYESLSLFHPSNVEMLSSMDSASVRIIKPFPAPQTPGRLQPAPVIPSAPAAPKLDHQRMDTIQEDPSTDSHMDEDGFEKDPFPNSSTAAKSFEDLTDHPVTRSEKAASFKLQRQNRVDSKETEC
Beta-galactosidase, sequence (Q8VNN2 whole entry): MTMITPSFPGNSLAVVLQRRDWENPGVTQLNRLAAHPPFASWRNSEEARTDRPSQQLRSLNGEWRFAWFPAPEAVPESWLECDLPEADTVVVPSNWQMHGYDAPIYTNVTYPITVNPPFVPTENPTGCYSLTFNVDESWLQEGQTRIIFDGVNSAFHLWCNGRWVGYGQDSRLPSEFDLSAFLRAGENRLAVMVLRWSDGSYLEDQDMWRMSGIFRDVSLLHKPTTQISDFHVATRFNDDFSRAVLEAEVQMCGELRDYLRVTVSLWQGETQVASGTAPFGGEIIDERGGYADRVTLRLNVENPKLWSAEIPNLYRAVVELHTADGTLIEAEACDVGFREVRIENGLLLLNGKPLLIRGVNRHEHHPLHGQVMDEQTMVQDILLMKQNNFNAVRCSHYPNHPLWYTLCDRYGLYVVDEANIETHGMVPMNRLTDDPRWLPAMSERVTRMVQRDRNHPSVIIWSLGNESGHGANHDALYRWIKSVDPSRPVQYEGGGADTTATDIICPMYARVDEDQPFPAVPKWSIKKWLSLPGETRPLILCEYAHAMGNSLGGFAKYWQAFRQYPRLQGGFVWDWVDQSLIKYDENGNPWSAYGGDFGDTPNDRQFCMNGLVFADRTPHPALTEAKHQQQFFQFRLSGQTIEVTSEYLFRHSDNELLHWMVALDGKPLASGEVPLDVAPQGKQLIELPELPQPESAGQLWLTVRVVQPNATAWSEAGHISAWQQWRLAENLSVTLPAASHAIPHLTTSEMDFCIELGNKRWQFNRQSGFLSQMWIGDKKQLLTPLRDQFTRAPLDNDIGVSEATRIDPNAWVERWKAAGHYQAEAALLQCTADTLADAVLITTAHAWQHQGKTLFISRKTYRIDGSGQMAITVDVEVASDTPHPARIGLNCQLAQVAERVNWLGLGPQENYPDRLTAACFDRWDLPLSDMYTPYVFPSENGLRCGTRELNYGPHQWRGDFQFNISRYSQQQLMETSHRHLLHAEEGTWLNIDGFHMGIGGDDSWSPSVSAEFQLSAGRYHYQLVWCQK
Protein Tat, sequence (P04608 whole entry): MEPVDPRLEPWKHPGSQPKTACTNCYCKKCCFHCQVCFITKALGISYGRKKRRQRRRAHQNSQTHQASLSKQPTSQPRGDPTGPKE

## CC(=O)Nc1ccc(NC(=O)CN(c2ccc(C34CC5CC(CC(C5)C3)C4)cc2)S(C)(=O)=O)cc1
[1]
  AC50: 2.87 µM (active)
[2]
  AC50: 57.7 µM (active)
[3]
  AC50: > 70 µM (inactive)
[4]
  AC50: 5.78 µM (active)
[5]
  AC50: 7.68 µM (active) and 9 µM (active)
[6]
  AC50: 50.4 µM (active)

## CNc1ccccc1C(C)(C)c1cc(-c2cccc(OC)c2)no1
[7]
  AC50: 1.92 µM (active)
[8]
  AC50: 56.8 µM (active)
[9]
  AC50: 9.49 µM (active)
[10]
  IC50: > 80 µM (inactive)
[11]
  AC50: 1.82 µM (active)

## COc1cc(/C=C(\CC(=O)O)c2nc3ccccc3s2)cc(OC)c1O
[12]
  IC50: > 100 µM (active)
[13]
  IC50: > 100 µM (active)

## COc1ccc(-c2[nH]nc(C)c2-c2cnn(-c3ccccc3)c2)c(O)c1C
[14]
  IC50: > 7.72 µM (active)
[15]
  IC50: > 69.5 µM (inactive)

## COc1ccc(N2CCN(C(=O)c3cc4c(s3)-c3ccccc3S(=O)(=O)C4)CC2)cc1
[16]
  EC50: > 50 µM (active)
[17]
  IC50: > 10 µM (inactive)

## O=C(/C=C/c1ccccc1)N1CCN(S(=O)(=O)c2ccc(F)cc2)CC1
[18]
  IC50: > 80 µM (inactive)
[19]
  IC50: 0.626 µM (active)

## C[C@H]1CN([C@@H](C)CO)S(=O)(=O)c2ccc(Br)cc2O[C@@H]1CN(C)S(=O)(=O)c1ccccc1F
[20]
  AC50: 15.7 µM (active)
[21]
  AC50: 15.7 µM (active)

## CS(=O)(=O)N1CC(=O)N2[C@H](C1)[C@@H](c1ccc(C#Cc3ccc(F)cc3)cc1)[C@@H]2CO
[22]
  AC50: > 26 µM (inactive)
